Tested on: diarrhea-predominant IBS subjects
Test: 3007 Study: open-label 52-week safety study, adverse events and withdrawals
Settings: Study 3007

Cc1nccn1C[C@H]1CCc2c(c3cccc4c3n2CCC4)C1=O [cilansetron, (R)-(−)-4,5,6,8,9,10-hexahydro-10-[(2-methyl-1H-imidazol-1-yl)methyl]-11H-pyrido-[3,2,1-jk]-carbazol-11-one]
SAE: Hepatobiliary Disorders (P/C): 0 n (%) | SAE: Immune System Disorders (P/C): 1 (<1%) n (%) | SAE: Infections and Infestations (P/C): 2 (<1%) n (%) | SAE: Injury, Poisoning and Procedural Complications (P/C): 0 n (%) | SAE: Irritable Bowel Syndrome Aggravated (P/C): 0 n (%) | SAE: Leiomyoma NOS (P/C): 0 n (%) | SAE: Loss of Consciousness (P/C): 0 n (%) | SAE: Myocardial Infarction (P/C): 0 n (%) | SAE: Neoplasms Benign, Malignant and Unspecified (Incl Cysts and Polyps) (P/C): 3 (1%) n (%) | SAE: Nervous System Disorders (P/C): 0 n (%) | SAE: Non-Accidental Overdose (P/C): 0 n (%) | SAE: Ovarian Cancer NOS* (P/C): 0 n (%) | SAE: Ovarian Cystadenofibroma* (P/C): 1 (<1%) n (%) | SAE: Pregnancy NOS* (P/C): 0 n (%) | SAE: Pregnancy, Puerperium and Perinatal Conditions (P/C): 0 n (%) | SAE: Psychiatric Disorders (P/C): 1 (<1%) n (%) | SAE: Psychotic Disorder NOS (P/C): 1 (<1%) n (%) | SAE: Renal and Urinary Disorders (P/C): 1 (<1%) n (%) | SAE: Reproductive System and Breast Disorders (P/C): 0 n (%) | SAE: Respiratory, Thoracic and Mediastinal Disorders (P/C): 1 (<1%) n (%) | SAE: Sinusitis Acute NOS (P/C): 1 (<1%) n (%) | SAE: Status Epilepticus (P/C): 0 n (%) | SAE: Suicidal Ideation (P/C): 1 (<1%) n (%) | SAE: Supraventricular Tachycardia (P/C): 1 (<1%) n (%) | SAE: Urinary Tract Infection NOS (P/C): 1 (<1%) n (%) | SAE: Uterine Polyp NOS* (P/C): 0 n (%) | SAE: Vaginal Cyst* (P/C): 0 n (%) | TEAEs that led to permanent discontinuation of study medication (P/C): 18% | Total Number of Subjects with at Least One Serious Adverse Event (P/C): 10 (4%) n (%) | subjects with at least one TEAE (P/C): 78% | subjects with at least one treatment-emergent SAE (P/C): 4% | withdrawal for AE (P/C): 17% | withdrawal for lack of efficacy (P/C): 21% | Number of deaths (P/C (N = 279)): 0 n (%) | Number of subjects who permanently discontinued study medication due to a TEAE (as reported on the AE CRF) (P/C (N = 279)): 50 (18) n (%) | Number of subjects with at least one AE of special interest (P/C (N = 279)): 185 (66) n (%) | Number of subjects with at least one SAE (P/C (N = 279)): 10 (4) n (%) | Number of subjects with at least one TEAE (P/C (N = 279)): 217 (78) n (%) | Number of subjects with at least one TEAE leading to dose reduction (P/C (N = 279)): 4 (1) n (%) | Number of subjects with at least one related TEAE (P/C (N = 279)): 150 (54) n (%) | Number of subjects with at least one severe TEAE (P/C (N = 279)): 44 (16) n (%) | Number of subjects who died (P/C, all enrolled): 0 n (%) | Primary reason for withdrawal: Adverse event and lack of efficacy (P/C, all enrolled): 34 (12) n (%) | Primary reason for withdrawal: Baseline complaint/adverse event (P/C, all enrolled): 14 (5) n (%) | Primary reason for withdrawal: Lack of efficacy (P/C, all enrolled): 25 (9) n (%) | TEAE incidence: blood CK increased (female subjects): 1% | TEAE incidence: constipation (female subjects): 28% | TEAE incidence: diarrhea excluding infective (female subjects): 9% | TEAE incidence: nausea and vomiting symptoms (female subjects): 8% | TEAE incidence: sinusitis NOS (female subjects): 9% | TEAE incidence: urinary tract infections (female subjects): 8% | prevalence of constipation overall (fifth (>12 months) interval): 3% | prevalence of TEAEs overall (first three-month interval): 62% | prevalence of constipation overall (first three-month interval): 17% | subjects discontinued due to AEs (first three-month interval): 7% | prevalence of TEAEs overall (fourth three-month interval): 54% | prevalence of constipation overall (fourth three-month interval): 2% | subjects discontinued due to AEs (fourth three-month interval): 2% | prevalence of TEAEs overall (last (>12 months) interval): 70% | TEAE incidence: blood CK increased (male subjects): 12% | TEAE incidence: constipation (male subjects): 15% | TEAE incidence: diarrhea excluding infective (male subjects): 3% | TEAE incidence: nausea and vomiting symptoms (male subjects): 3% | TEAE incidence: sinusitis NOS (male subjects): 3% | TEAE incidence: urinary tract infections (male subjects): 1% | subjects who discontinued due to the SAEs (of 29 subjects with SAEs): Eleven | subjects with at least one constipation episode reported as related to study medication (of the 128 subjects with constipation): 124 subjects | SAE: Abdominal Pain Upper (overall): 1 (<1%) n (%) | SAE: Adenomyosis* (overall): 1 (<1%) n (%) | SAE: Angina Pectoris (overall): 2 (<1%) n (%) | SAE: Appendicitis (overall): 1 (<1%) n (%) | SAE: Asthma NOS (overall): 1 (<1%) n (%) | SAE: Benign Ovarian Tumour* (overall): 1 (<1%) n (%) | SAE: Bladder Prolapse (overall): 1 (<1%) n (%) | SAE: Bone Neoplasm Malignant (overall): 1 (<1%) n (%) | SAE: Breast Cancer NOS* (overall): 2 (<1%) n (%) | SAE: Bronchopneumonia NOS (overall): 1 (<1%) n (%) | SAE: Calculus Ureteric (overall): 1 (<1%) n (%) | SAE: Cardiac Disorders (overall): 4 (<1%) n (%) | SAE: Chest Pain (overall): 2 (<1%) n (%) | SAE: Cholelithiasis (overall): 1 (<1%) n (%) | SAE: Colitis Ischaemic (overall): 1 (<1%) n (%) | SAE: Depression (overall): 1 (<1%) n (%) | SAE: Endometriosis* (overall): 1 (<1%) n (%) | SAE: Fibroma NOS (overall): 1 (<1%) n (%) | SAE: Food Allergy (overall): 1 (<1%) n (%) | SAE: Gastritis NOS (overall): 1 (<1%) n (%) | SAE: Gastroenteritis NOS (overall): 1 (<1%) n (%) | SAE: Gastrointestinal Disorders (overall): 4 (<1%) n (%) | SAE: General Disorders and Administration Site Conditions (overall): 2 (<1%) n (%) | SAE: Hallucination NOS (overall): 1 (<1%) n (%) | SAE: Hallucination, Auditory (overall): 1 (<1%) n (%) | SAE: Heat Exhaustion (overall): 1 (<1%) n (%) | SAE: Hepatitis NOS (overall): 1 (<1%) n (%) | SAE: Hepatobiliary Disorders (overall): 2 (<1%) n (%) | SAE: Immune System Disorders (overall): 1 (<1%) n (%) | SAE: Infections and Infestations (overall): 3 (<1%) n (%) | SAE: Injury, Poisoning and Procedural Complications (overall): 2 (<1%) n (%) | SAE: Irritable Bowel Syndrome Aggravated (overall): 1 (<1%) n (%) | SAE: Leiomyoma NOS (overall): 1 (<1%) n (%) | SAE: Loss of Consciousness (overall): 2 (<1%) n (%) | SAE: Myocardial Infarction (overall): 1 (<1%) n (%) | SAE: Neoplasms Benign, Malignant and Unspecified (Incl Cysts and Polyps) (overall): 6 (1%) n (%) | SAE: Nervous System Disorders (overall): 2 (<1%) n (%) | SAE: Non-Accidental Overdose (overall): 1 (<1%) n (%) | SAE: Ovarian Cancer NOS* (overall): 1 (<1%) n (%) | SAE: Ovarian Cystadenofibroma* (overall): 1 (<1%) n (%) | SAE: Pregnancy NOS* (overall): 1 (<1%) n (%) | SAE: Pregnancy, Puerperium and Perinatal Conditions (overall): 1 (<1%) n (%) | SAE: Psychiatric Disorders (overall): 1 (<1%) n (%) | SAE: Psychotic Disorder NOS (overall): 1 (<1%) n (%) | SAE: Renal and Urinary Disorders (overall): 2 (<1%) n (%) | SAE: Reproductive System and Breast Disorders (overall): 2 (<1%) n (%) | SAE: Respiratory, Thoracic and Mediastinal Disorders (overall): 1 (<1%) n (%) | SAE: Sinusitis Acute NOS (overall): 1 (<1%) n (%) | SAE: Status Epilepticus (overall): 1 (<1%) n (%) | SAE: Suicidal Ideation (overall): 1 (<1%) n (%) | SAE: Supraventricular Tachycardia (overall): 1 (<1%) n (%) | SAE: Urinary Tract Infection NOS (overall): 1 (<1%) n (%) | SAE: Uterine Polyp NOS* (overall): 1 (<1%) n (%) | SAE: Vaginal Cyst* (overall): 1 (<1%) n (%) | TEAE incidence: GI disorders (overall): 50% | TEAE incidence: Infections and infestations (overall): 32% | TEAE incidence: Investigations (overall): 24% | TEAE incidence: Musculoskeletal and connective tissue disorders (overall): 16% | TEAE incidence: Nervous system disorders (overall): 12% | TEAE incidence: abdominal pain NOS (overall): 7% | TEAE incidence: back pain (overall): 3% | TEAE incidence: blood CK increased (overall): 5% | TEAE incidence: constipation (overall): 24% | TEAE incidence: diarrhea NOS (overall): 6% | TEAE incidence: fecal occult blood positive (overall): 6% | TEAE incidence: flatulence (overall): 5% | TEAE incidence: headache NOS (overall): 6% | TEAE incidence: nasopharyngitis (overall): 5% | TEAE incidence: nausea (overall): 5% | TEAE incidence: sinusitis NOS (overall): 7% | TEAE incidence: upper respiratory tract infection NOS (overall): 5% | TEAE incidence: urinary tract infection NOS (overall): 5% | TEAEs that led to dose reduction (overall): 2% | TEAEs that led to permanent discontinuation: GI disorders (overall): 12% | TEAEs that led to permanent discontinuation: abdominal pain NOS (overall): 2% | TEAEs that led to permanent discontinuation: diarrhea NOS (overall): 1% | TEAEs that led to permanent discontinuation: flatulence (overall): 1% | Total Number of Subjects with at Least One Serious Adverse Event (overall): 29 (5%) n (%) | discontinued study medication due to constipation (overall): 5% | dose reduction due to constipation (overall): 1% | overall incidence of TEAEs possibly, probably, or unlikely related to study medication (overall): 56% | related TEAE: abdominal pain NOS (overall): 6% | related TEAE: blood CK increased (overall): 3% | related TEAE: constipation (overall): 23% | related TEAE: diarrhea NOS (overall): 3% | related TEAE: fecal occult blood positive (overall): 3% | related TEAE: flatulence (overall): 4% | related TEAE: headache NOS (overall): 4% | related TEAE: nausea (overall): 3% | severe TEAE: abdominal pain NOS (overall): 2% | severe TEAE: constipation (overall): 3% | severe TEAE: headache NOS (overall): 1% | special interest TEAEs (overall): 69% | subjects with at least one TEAE (overall): 82% | subjects with severe TEAEs (overall): 18% | withdrawal for AE (combined categories) (overall): 15% | withdrawal for lack of efficacy (combined categories) (overall): 18% | prevalence of TEAEs overall (second three-month interval): 55% | prevalence of constipation overall (second three-month interval): 9% | subjects discontinued due to AEs (second three-month interval): 6% | prevalence of TEAEs overall (third three-month interval): 54% | prevalence of constipation overall (third three-month interval): 5% | subjects discontinued due to AEs (third three-month interval): 2%

Source: US20070093520A1, “Method of treatment of diarrhea-predominant irritable bowel syndrome in a subject” (priority 2005, published 2007)
